These molecules were tested against ATX (human His-tagged) (Homo sapiens (Human), UniProt Q13822) (assay: Human ATX enzyme inhibition assay (fluorescence quenching, MR121 substrate)). Details: inhibitory activity against ATX; 30 nM ATX, 1 μM MR121 substrate, 30° C.
Type: biochemical
Procedure: Human ATX Enzyme Inhibition Assay
ATX inhibition was measured by a fluorescence quenching assay using a specifically labeled substrate analogue (MR121 substrate). To obtain this MR121 substrate, BOC and TBS protected 6-amino-hexanoic acid (R)-3-({2-[3-(2-{2-[2-(2-amino-ethoxy)-ethoxy]-ethoxy}-ethoxy)-propionylamino]-ethoxy}-hydroxy-phosphoryloxy)-2-hydroxy-propyl ester (Ferguson et al., Org Lett 2006, 8 (10), 2023) was labeled with MR121 fluorophore (CAS 185308-24-1, 1-(3-carboxypropyl)-11-ethyl-1,2,3,4,8,9,10,11-octahydro-dipyrido[3,2-b:2′,3′-i]phenoxazin-13-ium) on the free amine of the ethanolamine side and then, after deprotection, subsequently with tryptophan on the side of the aminohexanoic acid.
Assay working solutions were made as follows:
Assay buffer (50 mM Tris-HCl, 140 mM NaCl, 5 mM KCl, 1 mM CaCl2, 1 mM MgCl2, 0.01% Triton-X-100, pH 8.0;
ATX solution: ATX (human His-tagged) stock solution (1.08 mg/mL in 20 mM bicine, pH 8.5, 0.15 M NaCl, 10% glycerol, 0.3% CHAPS, 0.02% NaN3), diluted to 1.4-2.5× final concentration in assay buffer;
MR121 substrate solution: MR121 substrate stock solution (800 μM MR121 substrate in DMSO), diluted to 2-5× final concentration in assay buffer.
Test compounds (10 mM stock in DMSO, 8 μL) were obtained in 384 well sample plates (Corning Costar #3655) and diluted with 8 μL DMSO. Row-wise serial dilutions were made by transferring 8 μL cpd solution to the next row up to […]. The compound and control solutions were mixed five times and 2 μL were transferred to 384 well assay plates (Corning Costar #3702). Then, 15 μL of 41.7 nM ATX solution was added (30 nM final concentration), mixed five times and then incubated for 15 minutes at 30° C. 10 μL of MR121 substrate solution was added (1 μM final concentration), mixed 30 times and then incubated for 15 minutes at 30° C. Fluorescence was then measured every 2 minutes for 1 hour (Perkin Elmer plate: vision multimode reader); light intensity: 2.5%; exp. time: 1.4 sec, Filter: Fluo_630/690 nm) and IC50 values were calculated from these readouts.

IC50 [nM] | SMILES
56 | O=C1N[C@@H]2CCN(C(=O)c3nc4n(n3)CCN(C(=O)OCc3ccc(OC(F)(F)F)c(F)c3)CC4)C[C@H]2O1 [Example 43, 3-fluoro-4-(trifluoromethoxy)benzyl 2-((3aR,7aR)-2-oxooctahydrooxazolo[5,4-c]pyridine-5-carbonyl)-8,9-dihydro-5H-[1,2,4]triazolo[1,5-d][1,4]diazepine-7(6H)-carboxylate]
6 | O=C(OCc1ccc(OC(F)(F)F)c(Cl)c1)N1CCc2nc(C(=O)N3CCc4[nH]nnc4C3)nn2CC1 [Example 41, [3-chloro-4-(trifluoromethoxy)phenyl]methyl 2-(1,4,6,7-tetrahydrotriazolo[4,5-c]pyridine-5-carbonyl)-5,6,8,9-tetrahydro-[1,2,4]triazolo[1,5-d][1,4]diazepine-7-carboxylate]
18 | CC(C)(C)C(=O)Nc1cc(C#N)ccc1COC(=O)N1CCc2cc(C(=O)N3CCc4[nH]nnc4C3)nn2CC1 [Example 10, [4-Cyano-2-(2,2-dimethylpropanoylamino)phenyl]methyl 2-(1,4,6,7-tetrahydrotriazolo[4,5-c]pyridine-5-carbonyl)-4,5,7,8-tetrahydropyrazolo[1,5-d][1,4]diazepine-6-carboxylate]
13 | O=C(OCc1ccc(OC(F)(F)F)cc1F)N1CCc2nc(C(=O)N3CCc4[nH]nnc4C3)nn2CC1 [Example 35, [2-fluoro-4-(trifluoromethoxy)phenyl]methyl 2-(1,4,6,7-tetrahydrotriazolo[4,5-c]pyridine-5-carbonyl)-5,6,8,9-tetrahydro-[1,2,4]triazolo[1,5-d][1,4]diazepine-7-carboxylate]
11 | N#Cc1ccc(OCC(=O)N2CCc3cc(C(=O)N4CCc5[nH]nnc5C4)nn3CC2)c(C2CC2)c1 [Example 15, 3-Cyclopropyl-4-(2-oxo-2-(2-(4,5,6,7-tetrahydro-1H-[1,2,3]triazolo[4,5-c]pyridine-5-carbonyl)-7,8-dihydro-4H-pyrazolo[1,5-d][1,4]diazepin-6(5H)-yl)ethoxy)benzonitrile]
21 | COc1cc(OC(F)(F)F)ccc1COC(=O)N1CCc2cc(C(=O)N3CCc4[nH]nnc4C3)nn2CC1 [Example 38, 2-methoxy-4-(trifluoromethoxy)benzyl 2-(4,5,6,7-tetrahydro-1H-[1,2,3]triazolo[4,5-c]pyridine-5-carbonyl)-7,8-dihydro-4H-pyrazolo[1,5-d][1,4]diazepine-6(5H)-carboxylate]
13 | O=C(CCc1ccc(OC(F)(F)F)c(F)c1)N1CCc2cc(C(=O)N3CCc4[nH]nnc4C3)nn2CC1 [Example 18, 3-[3-fluoro-4-(trifluoromethoxy)phenyl]-1-[2-(1,4,6,7-tetrahydrotriazolo[4,5-c]pyridine-5-carbonyl)-4,5,7,8-tetrahydropyrazolo[1,5-d][1,4]diazepin-6-yl]propan-1-one]
158 | O=C(OCc1ccccc1)N1CCc2cc(C(=O)N3CCc4[nH]nnc4C3)nn2CC1 [Example 1, Benzyl 2-(1,4,6,7-tetrahydrotriazolo[4,5-c]pyridine-5-carbonyl)-4,5,7,8-tetrahydropyrazolo[1,5-d][1,4]diazepine-6-carboxylate]
14 | Cc1cc(OC(F)(F)F)ccc1COC(=O)N1CCc2cc(C(=O)N3CCc4[nH]nnc4C3)nn2CC1 [Example 39, 2-methyl-4-(trifluoromethoxy)benzyl 2-(4,5,6,7-tetrahydro-1H-[1,2,3]triazolo[4,5-c]pyridine-5-carbonyl)-7,8-dihydro-4H-pyrazolo[1,5-d][1,4]diazepine-6(5H)-carboxylate]
12 | CCc1cc(C#N)ccc1OCC(=O)N1CCc2cc(C(=O)N3CCc4[nH]nnc4C3)nn2CC1 [Example 16, 3-Ethyl-4-(2-oxo-2-(2-(4,5,6,7-tetrahydro-1H-[1,2,3]triazolo[4,5-c]pyridine-5-carbonyl)-7,8-dihydro-4H-pyrazolo[1,5-d][1,4]diazepin-6(5H)-yl)ethoxy)benzonitrile]
7 | O=C(OCc1ccc(OC(F)(F)F)cc1F)N1CCc2cc(C(=O)N3CCc4[nH]nnc4C3)nn2CC1 [Example 4, 2-Fluoro-4-(trifluoromethoxy)benzyl 2-(4,5,6,7-tetrahydro-1H-[1,2,3]triazolo[4,5-c]pyridine-5-carbonyl)-7,8-dihydro-4H-pyrazolo[1,5-d][1,4]diazepine-6(5H)-carboxylate]
52 | COc1ccc(COC(=O)N2CCc3cc(C(=O)N4CCc5[nH]nnc5C4)nn3CC2)cc1 [Example 27, 4-methoxybenzyl 2-(4,5,6,7-tetrahydro-1H-[1,2,3]triazolo[4,5-c]pyridine-5-carbonyl)-7,8-dihydro-4H-pyrazolo[1,5-d][1,4]diazepine-6(5H)-carboxylate]
16 | O=C(CCc1ccc(OC(F)F)c(F)c1)N1CCc2cc(C(=O)N3CCc4[nH]nnc4C3)nn2CC1 [Example 26, 3-[4-(difluoromethoxy)-3-fluorophenyl]-1-[2-(1,4,6,7-tetrahydrotriazolo[4,5-c]pyridine-5-carbonyl)-4,5,7,8-tetrahydropyrazolo[1,5-d][1,4]diazepin-6-yl]propan-1-one]
7 | O=C(OCc1ccc(OC(F)(F)F)c(Cl)c1)N1CCc2nc(C(=O)N3CCc4[nH]nnc4C3)cn2CC1 [Example 42, [3-chloro-4-(trifluoromethoxy)phenyl]methyl 2-(1,4,6,7-tetrahydrotriazolo[4,5-c]pyridine-5-carbonyl)-5,6,8,9-tetrahydroimidazo[1,2-d][1,4]diazepine-7-carboxylate]
17 | O=C(CCc1ccc(OC(F)(F)F)c(F)c1)N1CCc2nc(C(=O)N3CCc4[nH]nnc4C3)nn2CC1 [Example 21, 3-[3-fluoro-4-(trifluoromethoxy)phenyl]-1-[2-(1,4,6,7-tetrahydrotriazolo[4,5-c]pyridine-5-carbonyl)-5,6,8,9-tetrahydro-[1,2,4]triazolo[1,5-d][1,4]diazepin-7-yl]propan-1-one]
17 | O=C(OCc1ccc(OCC(F)(F)F)cc1)N1CCc2cc(C(=O)N3CCc4[nH]nnc4C3)nn2CC1 [Example 40, 4-(2,2,2-trifluoroethoxy)benzyl 2-(4,5,6,7-tetrahydro-1H-[1,2,3]triazolo[4,5-c]pyridine-5-carbonyl)-7,8-dihydro-4H-pyrazolo[1,5-d][1,4]diazepine-6(5H)-carboxylate]
9 | O=C(c1cc(OCC2CCOCC2)nc(C2CC2)c1)N1CCc2cc(C(=O)N3CCc4[nH]nnc4C3)nn2CC1 [Example 24, (6-(2-cyclopropyl-6-((tetrahydro-2H-pyran-4-yl)methoxy)isonicotinoyl)-5,6,7,8-tetrahydro-4H-pyrazolo[1,5-d][1,4]diazepin-2-yl)(6,7-dihydro-1H-[1,2,3]triazolo[4,5-c]pyridin-5(4H)-yl)methanone]
22 | O=C(OCc1ccc(OC(F)F)c(F)c1)N1CCc2cc(C(=O)N3CCc4[nH]nnc4C3)nn2CC1 [Example 31, 4-(difluoromethoxy)-3-fluorobenzyl 2-(4,5,6,7-tetrahydro-1H-[1,2,3]triazolo[4,5-c]pyridine-5-carbonyl)-7,8-dihydro-4H-pyrazolo[1,5-d][1,4]diazepine-6(5H)-carboxylate]
70 | N#Cc1ccc(COC(=O)N2CCc3cc(C(=O)N4CCc5[nH]nnc5C4)nn3CC2)cc1F [Example 7, 4-Cyano-3-fluorobenzyl 2-(4,5,6,7-tetrahydro-1H-[1,2,3]triazolo[4,5-c]pyridine-5-carbonyl)-7,8-dihydro-4H-pyrazolo[1,5-d][1,4]diazepine-6(5H)-carboxylate]
9 | O=C(OCc1ccc(OC(F)(F)F)c(Cl)c1)N1CCc2cc(C(=O)N3CCc4[nH]nnc4C3)nn2CC1 [Example 37, 3-chloro-4-(trifluoromethoxy)benzyl 2-(4,5,6,7-tetrahydro-1H-[1,2,3]triazolo[4,5-c]pyridine-5-carbonyl)-7,8-dihydro-4H-pyrazolo[1,5-d][1,4]diazepine-6(5H)-carboxylate]
30 | COc1ccc(COC(=O)N2CCc3cc(C(=O)N4CCc5[nH]nnc5C4)nn3CC2)cc1F [Example 32, 3-fluoro-4-methoxybenzyl 2-(4,5,6,7-tetrahydro-1H-[1,2,3]triazolo[4,5-c]pyridine-5-carbonyl)-7,8-dihydro-4H-pyrazolo[1,5-d][1,4]diazepine-6(5H)-carboxylate]
14 | O=C(CCc1ccc(OC(F)(F)F)cc1)N1CCc2cc(C(=O)N3CCc4[nH]nnc4C3)nn2CC1 [Example 14, 1-[2-(1,4,6,7-tetrahydrotriazolo[4,5-c]pyridine-5-carbonyl)-4,5,7,8-tetrahydropyrazolo[1,5-d][1,4]diazepin-6-yl]-3-[4-(trifluoromethoxy)phenyl]propan-1-one]

From patent US10669285B2, “Condensed [1,4] diazepine compounds as autotaxin (ATX) and lysophosphatidic acid (LPA) production inhibitors” (Hoffmann-La Roche Inc., priority 2014, dated 2020)
